One data set is described as follows: in vitro. The note with it: Chinook salmon.
The test system of a further data set is IPNV genomic RNA. It is filed as cell-based, infectious pancreatic necrosis virus (IPNV).
Another data set relates to IPNV particles. The class given is cell-based, infectious pancreatic necrosis virus (IPNV). The settings on record: acivicin 25 and 70 μg/ml, 24 and 48 h.p.i.
Data set [1] concerns IPNV. Description: Modified viral plaque inhibition assay with pre-incubation of virus (virus cell entry). It is filed as cell-based, infectious pancreatic necrosis virus (IPNV). The settings on record: for EC50: Infectious pancreatic necrosis virus. On the procedure: Compounds derived from isoxazol are assayed for their ability to inhibit viral entry into the cell. To determine if acivicin blocks the entry of IPNV, a modified viral plaque inhibition assay was conducted. […] Control viral samples were not pre-incubated with acivicin. […] Overnight incubation of the virus in acivicin increased the ability of the isoxazol compound to inhibit viral plaques by 38 percent.

For data set [2], the system named is IPNV. Description: Survival of IPNV-infected Atlantic salmon fry treated with acivicin by immersion. It is filed as in vivo.
Data set [3] in a line: Uninfected Atlantic salmon fry treated with acivicin (toxicity control). It is filed as in vivo. The settings on record: uninfected fish treated with 14 μg/ml acivicin. As for the experimental part: Starting nine days post-infection (day 9), surviving fish are divided into four groups of forty fish each and treated with 0, 7.0, 10.8, or 14.0 μg/ml of acivicin by immersion in a 2 hour daily bath containing […]. One group corresponded to untreated fish, and the other three groups corresponded to fish groups treated with different concentrations of acivicin. As a negative control, there were two groups of 40 healthy fish in each; one group corresponded to an uninfected fry administered 14 μg/ml of acivicin while the other group was not infected or administered acivicin. Daily treatment in acivicin continued through day 21 post-infection (day 21). The fish were followed for 36 days post-infection to detect and document mortality.

The test system of data set [4] is IPNV. Description: Survival of naturally infected rainbow trout fry treated with acivicin. The class given is in vivo, rainbow trout (Onchorhynchus mykiss). On the procedure:
FIG. 4 is a graph showing the effect of acivicin treatment on the survival of rainbow trout fry naturally infection with IPNV. The fish were followed for 30 days starting at day one of the acivicin treatments, to detect and document deaths. The data are presented in terms of percent survival: • ●---●: untreated naturally infected fish, positive control. • σ--σ: naturally infected fish treated with 9 μg/ml of Acivicin.
Acivicin was tested in vivo on thirty rainbow trout (Onchorhynchus mykiss). […] The fish were followed for 30 days following the first day of the acivicin treatments. Deaths were documented and presented in terms of percent survival. Results from methods assessing the effect of acivicin treatment on the survival of the trout fry naturally infected are shown in the graph at FIG. 4. Thirty days after the acivicin administration began, 90% of the trout fry had survived , while only 30% of the untreated control group had survived the same 30 day period. […] By contrast, in the untreated fish group, deaths continued during the first 25 days of the observation period.

The nature of the next data set: Stability in solution. It is filed as physicochemical.
A further data set concerns reovirus. The note with it: Balb/c cells; Keast et al. (1992); cited from earlier work.
Data set [5] concerns IPNV. The note with it: at 100 to 300 μg/ml; cited from earlier work.
For data set [6], the system named is IPNV strain VR-299. The note with it: cited from earlier work.
Data set [7] has as its system IPNV. The settings on record: cited from earlier work.
In data set [8] the test system is IPNV strain VR-299. Description: Virus plaque inhibition assay. The settings on record: Infectious pancreatic necrosis virus, CHSE-214, 72 h, read-out: EC50, effective antiviral concentration required to inhibit IPNV plaque formation by 50%. It is filed as cell-based.
For data set [9], the system named is IPNV. Description: Survival of IPNV-infected Atlantic salmon fry treated with neomycin by immersion. The settings on record: neomycin 10, 40 and 80 ppm, 1 hour daily bath through day 23.
Where [10] appears, read: acivicin 25 and 70 μg/ml, 24 and 48 h.p.i.

In brackets after ≈: the same amount, converted by molar mass. Entries after “also recorded” stand apart in the source; their conditions may differ. Read-outs that look alike come from different tables or passages of the source.

In turn, `Nc1ncnc2c1ncn2CC(O)C(=O)O` (centres unmarked) [AHPA, 3-adenine-9-yl-2-hydroxypropanoic acid] registered a CC50 at 3 days in “in vitro” of 75 µg/mL (≈ 336 µM).
For the molecule `N[C@H](C(=O)O)[C@@H]1CC(Cl)=NO1` [Acivicin, L (alpha S, 5S)-alpha-amino-3-chloro-4.5-dihydro-5-isoxazolacetic acid], the “Effect on IPNV genomic RNA synthesis” value in the data set with IPNV genomic RNA (setting [10]) is “did not inhibit”. Further, the “Effect on IPNV particle formation” value in the data set with IPNV particles is given as “inhibits the formation of IPNV viral particles”. Moreover, the “EC50, virus samples pre-incubated 2 hours, versus not pre-incubated” value with IPNV [1] (2 hours pre-incubation) was “not significantly different”. Further, the EC50 in the data set on IPNV [1] (no pre-incubation, read-out: EC50, virus samples without pre-incubation) was determined as 4 µg/mL (≈ 22.4 µM); in the data set with IPNV [1] (pre-incubation with 1 to 6 μg/ml acivicin overnight, read-out: EC50, virus samples pre-incubated overnight with acivicin), 2.5 µg/mL. Also, the “Deaths after acivicin treatments were terminated” value in the data set with IPNV [2] (days 21-36, all three treated groups, untreated infected deaths reached 54 percent) is listed as “no deaths observed”. In addition, the “Day post-treatment by which deaths stopped completely” value with IPNV [2] (each of the treated groups, treatment began day 9 post-infection) is on record as ≤ 10 day post-treatment. The “Mortality rate (accumulated deaths)” value in the data set on IPNV [2] (infected fish, 7.0 μg/ml acivicin, 2 hour daily bath from day 9 to 21 post-infection, untreated infected 30%) is reported as 30%. The Survival in the data set with IPNV [2] (infected fish, 10.5 μg/ml acivicin) was found to be 92%; in the data set on IPNV [2] (infected fish, 14 μg/ml acivicin), 89%; with IPNV [4] (fry of approximately 0.8 g, treated 12 days with 9 μg/ml acivicin), 98%. Also, in the data set on IPNV [2] (infected fish, 10.5 μg/ml acivicin, 2 hour daily bath from day 9 to 21 post-infection), the Accumulated deaths is recorded as 8%. Further, the Mortality in the data set with IPNV [2] (infected fish, 14 μg/ml acivicin, 2 hour daily bath from day 9 to 21 post-infection) amounted to 11%. For the same molecule, in [3], the Toxicity in fish entry is on record as “not toxic in fish”. The “Day of treatment by which all deaths occurred” value in the data set with IPNV [4] (9 μg/ml acivicin, 15 day protocol, untreated deaths continued 25 days) was ≤ 12 days. Further, the “Survival thirty days after administration began” value in the data set with IPNV [4] (fry 1.0±0.4 g, 9 μg/ml acivicin, daily bath of two hours, 15 days, untreated control 30%) turned out to be 90%. The Stability in solution entry in the data set “Stability in solution” is given as “stable in solution”. Also, the “Concentration inhibiting reovirus replication” value with reovirus was 0.1 µg/mL. In addition, the CC50 in the data set “in vitro” was > 100 µg/mL. In addition, the “Effect on IPNV polypeptide synthesis” value with IPNV polypeptides (setting [10]) is listed as “did not inhibit”.
Regarding `Nc1ncnc2c1ncn2C[C@H](O)CO` [DHPA, (S)-9-(2.3-dihydroxypropyl) adenine], the “Cytotoxicity in RTG-2 cells” value in the data set on IPNV [5] is recorded as “without presenting cytotoxicity”.
On to `C#Cc1c(C(N)=O)ncn1[C@@H]1O[C@H](CO)[C@@H](O)[C@H]1O` [EICAR, 5-ethynyl-1-β-ribofuranosylimidazole-carboxamide], for which the “EC50 for IPNV” value in the data set with IPNV strain VR-299 [6] (Jashés et al., Antiviral Res. 29:309 (1996)) was 0.01 µg/mL. Also, the “Deaths among experimentally IPNV-infected fry” value in the data set on IPNV [7] (rainbow trout and Coho salmon fry, given first day after infection, Moya et al. (2000)) is given as “fewer deaths occurred among the infected fry”.
Regarding `COc1c(C)c2c(c(O)c1C/C=C(\C)CCC(=O)O)C(=O)OC2` [Myconhenolic Acid, 6-(4-hydroxy-6-methoxy-7-methyl-3-oxo-5-phthalanyl)-4-methyl-4-hexenoic acid], the EC50 in the data set with IPNV strain VR-299 [8] is 0.5 µg/mL (≈ 1.56 µM). For the same molecule, in “in vitro”, the CC50 at 3 days is > 50 µg/mL.
As to `NC(=O)c1ncn([C@@H]2O[C@H](CO)[C@@H](O)[C@H]2O)n1` [Ribavirin], in the data set with IPNV strain VR-299 [6] (Migus et al. (1980)), the “Inhibition of IPNV replication in vitro” value is “inhibit IPNV replication in vitro; also recorded: efficiently inhibits IPNV replication in vitro”. Further, the “Efficacy against IPNV in vivo” value with IPNV [7] (Migus et al. (1980), Savan et al. (1980)) is “no efficacy in vivo”.
Turning to neomycin, the “Effect on IPNV genomic RNA synthesis” value in the data set with IPNV genomic RNA (neomycin 4 mg/ml added 1, 3, 5, 7 h.p.i., harvest 24 h.p.i.) is listed as “inhibited the IPNV RNA synthesis”. Moreover, the “Mortality outbreak, treatment from day thirteen post-infection” value with IPNV [9] was “stop the mortality outbreak immediately”; in the data set on IPNV [9] (listed as neomycin) it was “stopped dying immediately”. For the same molecule, in the data set with IPNV polypeptides (neomycin 4 mg/ml added 1, 3, 5, 7 h.p.i., 24 h.p.i.), the “Effect on IPNV polypeptide synthesis” value was “does not inhibit IPNV polypeptide synthesis”.

The values are drawn from patent US7652050B2, “Methods for increasing the survival of aquatic animals infected with an aquatic virus” (Laboratorio de Siagnóstico GAM S.A, priority 2001, dated 2010).
